Like-named read-outs stand apart in the source and are kept apart here.
Columns and labels:
[1] = Solubility in DMSO or chloroform; assay type: physicochemical
Description: Compound 5. FABMS 613.2 (M+H)^+. Insoluble in either DMSO or chloroform.
Subsequently ^1H NMR spectra for the five active compounds were performed. The ^1H NMR spectrum for compound 5 is not determined, because it is insoluble in either DMSO or chloroform. The ^1H NMR spectra for compounds 6, 7, 8 and 11 are consistent with their chemical structures.

GST-fused Bcl-2 protein = target: T1, GST-fused Bcl-2 protein (Homo sapiens, UniProt P10415); assay: Bcl-2 fluorescence polarization (FP) competitive binding assay with Flu-Bak-BH3 peptide; settings: read-out: IC50, inhibition of Bak BH3 peptide binding to Bcl-2, 290 nM tracer, 270 nM Bcl-2 protein
T1 construct: purchased Santa Cruz Biotechnology (Santa Cruz, Calif.)
T1 sequence (P10415 1-205 limits assumed): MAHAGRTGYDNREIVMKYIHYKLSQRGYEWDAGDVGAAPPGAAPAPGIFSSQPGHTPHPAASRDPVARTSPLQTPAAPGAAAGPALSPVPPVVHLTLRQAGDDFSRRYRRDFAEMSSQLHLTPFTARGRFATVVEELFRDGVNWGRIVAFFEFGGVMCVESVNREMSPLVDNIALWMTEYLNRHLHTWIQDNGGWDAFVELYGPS

HL-60 cells = assay: Cell viability, trypan blue exclusion, HL-60; assay type: cell-based; settings: Homo sapiens; HL-60, trypan blue exclusion, 24 hours; read-out: IC50, inhibition of cell viability
Description: FIG. 3 illustrated the effects of Compound 6 on cell viability. Cells are plated in 24-well plates, incubated with the compound at appropriate concentrations for […]. Cell viability is determined by trypan blue exclusion with hemocytometer. Percent of viable cells, as compared with untreated cells, is plotted against drug concentration.
First, in some embodiments, the trypan blue exclusion method was used to determine the effect of an inhibitor on cell viability in which cells were treated with the inhibitor for 24 hours. Second, in some other embodiments, the MTT assay was used to determine the activity of an inhibitor on cell proliferation where cells were treated for four days. All the 7 active compounds were tested using the HL-60 cell line that expresses the highest level of Bcl-2 protein among all the cancer cell lines examined.
Cells and Reagents. Human breast cell lines (T47D, MDA-231, MDA-453), and human Leukemia cells HL-60 were obtained from the American Type Culture Collection (ATCC). All tumor cell lines were grown and maintained in RPMI 1640 medium containing 10% FBS, except MDA-MB-231, which used Dulbecco's modified Eagle's medium as basal medium. Cultures were maintained in a humidified incubator at 37° C. and 5% CO2.
Cell viability was determined by the trypan blue assay. […] Trypan blue dye was added 24 hours later and the percentage of viable cells were determined.

Bcl-2/Bcl-XL = settings: reported by Tzung et al.; read-out: IC50, inhibitor of Bcl-2/Bcl-XL; cited from earlier work

O=C1c2cc(Br)ccc2-c2ccc3c4ccc5c6c(ccc(c7ccc1c2c73)c64)C(=O)c1cc(Br)ccc1-5 [Compound 5]
solubility [1]: Insoluble | solubility ([1]; listed as compound 5): insoluble

COc1ccc2c(c1)CCc1cc(OC)ccc1[N+]([O-])=[N+]2[O-] [Compound 6a, 2,9-Dimethoxy-11,12-dihydrodibenzo [c,g] [1,2] diazocine-5,6-dioxide]
melting point: 136 to 138 °C

Nc1nc(-c2ccccc2)nc2c1[n+]([O-])c1ccccc1[n+]2[O-] [Compound 7]
IC50 (GST-fused Bcl-2 protein): 1600 nM

Brc1cccc[n+]1-c1ccc2cc(-[n+]3ccccc3Br)ccc2c1 [Compound 10]
IC50 (HL-60 cells): ≥ 50000 nM

antimycin A
IC50 (Bcl-2/Bcl-XL): 2000 nM
